From PubChem BioAssay (NCI)
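The concentration for 50% growth inhibition is given as GI50. TGI is the concentration that stops growth completely.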

Legend:
Test in all cases: NCI anticancer screen, dose series, 384-well format
HOP-62 NSCLC = test system: HOP-62 NSCLC
NCI-H522 lung = test system: NCI-H522 lung
T-47D breast = test system: T-47D breast
NCI-H23 lung = test system: NCI-H23 lung
COLO 205 colon = test system: COLO 205 colon
MCF7 breast = test system: MCF7 breast
MDA-MB-435 melanoma = test system: MDA-MB-435 melanoma
RXF 393 renal = test system: RXF 393 renal
HOP-92 NSCLC = test system: HOP-92 NSCLC
786-0 renal = test system: 786-0 renal
BT-549 breast = test system: BT-549 breast
SNB-75 CNS = test system: SNB-75 CNS
DU-145 prostate = test system: DU-145 prostate
UACC-62 melanoma = test system: UACC-62 melanoma
MDA-MB-231 breast = test system: MDA-MB-231 breast
KM12 colon = test system: KM12 colon
EKVX NSCLC = test system: EKVX NSCLC
NCI-H460 NSCLC = test system: NCI-H460 NSCLC
SW-620 colon = test system: SW-620 colon
SK-MEL-2 melanoma = test system: SK-MEL-2 melanoma
NCI/ADR-RES ovarian = test system: NCI/ADR-RES ovarian
OVCAR-4 ovarian = test system: OVCAR-4 ovarian
SNB-19 CNS = test system: SNB-19 CNS
TK-10 renal = test system: TK-10 renal
NCI-H322M lung = test system: NCI-H322M lung
ACHN renal = test system: ACHN renal
OVCAR-5 ovarian = test system: OVCAR-5 ovarian
HS 578T breast = test system: HS 578T breast
SF-295 CNS = test system: SF-295 CNS
K-562 leukemia = test system: K-562 leukemia
SN12C renal = test system: SN12C renal
LOX IMVI melanoma = test system: LOX IMVI melanoma
SF-539 CNS = test system: SF-539 CNS
A549 NSCLC = test system: A549 NSCLC
SK-MEL-28 melanoma = test system: SK-MEL-28 melanoma
HCT-15 colon = test system: HCT-15 colon
SR leukemia = test system: SR leukemia
SK-OV-3 ovarian = test system: SK-OV-3 ovarian
HCC-2998 colon = test system: HCC-2998 colon
MDA-MB-468 breast = test system: MDA-MB-468 breast
PC-3 prostate = test system: PC-3 prostate
NCI-H226 lung = test system: NCI-H226 lung
SK-MEL-5 melanoma = test system: SK-MEL-5 melanoma
MOLT-4 leukemia = test system: MOLT-4 leukemia
A498 renal = test system: A498 renal
OVCAR-3 ovarian = test system: OVCAR-3 ovarian
RPMI-8226 leukemia = test system: RPMI-8226 leukemia
UACC-257 melanoma = test system: UACC-257 melanoma
MALME-3M melanoma = test system: MALME-3M melanoma
IGROV1 ovarian = test system: IGROV1 ovarian
M14 melanoma = test system: M14 melanoma
CAKI-1 renal = test system: CAKI-1 renal
U251 glioblastoma = test system: U251 glioblastoma
HT29 colon = test system: HT29 colon
SF-268 CNS = test system: SF-268 CNS
HCT-116 colon = test system: HCT-116 colon
CCRF-CEM leukemia = test system: CCRF-CEM leukemia
HL-60(TB) leukemia = test system: HL-60(TB) leukemia

CC(C)[C@H](O)C(=O)N[C@@H](C)C(=O)N[C@@H]1C(=O)N(C)CCc2ccccc21
GI50 (HOP-62 NSCLC): > 100 µM | TGI (HOP-62 NSCLC): > 100 µM | GI50 (NCI-H522 lung): > 100 µM | TGI (NCI-H522 lung): > 100 µM | GI50 (T-47D breast): > 100 µM | TGI (T-47D breast): > 100 µM | GI50 (NCI-H23 lung): > 100 µM | TGI (NCI-H23 lung): > 100 µM | GI50 (COLO 205 colon): > 100 µM | TGI (COLO 205 colon): > 100 µM | GI50 (MCF7 breast): > 100 µM | TGI (MCF7 breast): > 100 µM | GI50 (MDA-MB-435 melanoma): > 100 µM | TGI (MDA-MB-435 melanoma): > 100 µM | GI50 (RXF 393 renal): > 100 µM | TGI (RXF 393 renal): > 100 µM | GI50 (HOP-92 NSCLC): > 100 µM | TGI (HOP-92 NSCLC): > 100 µM | GI50 ([…]-0 renal): > 100 µM | TGI (786-0 renal): > 100 µM | GI50 (BT-549 breast): > 100 µM | TGI (BT-549 breast): > 100 µM | GI50 (SNB-75 CNS): > 100 µM | TGI (SNB-75 CNS): > 100 µM | GI50 (DU-145 prostate): > 100 µM | TGI (DU-145 prostate): > 100 µM | GI50 (UACC-62 melanoma): > 100 µM | TGI (UACC-62 melanoma): > 100 µM | GI50 (MDA-MB-231 breast): > 100 µM | TGI (MDA-MB-231 breast): > 100 µM | GI50 (KM12 colon): > 100 µM | TGI (KM12 colon): > 100 µM | GI50 (EKVX NSCLC): > 100 µM | TGI (EKVX NSCLC): > 100 µM | GI50 (NCI-H460 NSCLC): > 100 µM | TGI (NCI-H460 NSCLC): > 100 µM | GI50 (SW-620 colon): > 100 µM | TGI (SW-620 colon): > 100 µM | GI50 (SK-MEL-2 melanoma): > 100 µM | TGI (SK-MEL-2 melanoma): > 100 µM | GI50 (NCI/ADR-RES ovarian): > 100 µM | TGI (NCI/ADR-RES ovarian): > 100 µM | GI50 (OVCAR-4 ovarian): > 100 µM | TGI (OVCAR-4 ovarian): > 100 µM | GI50 (SNB-19 CNS): > 100 µM | TGI (SNB-19 CNS): > 100 µM | GI50 (TK-10 renal): > 100 µM | TGI (TK-10 renal): > 100 µM | GI50 (NCI-H322M lung): > 100 µM | TGI (NCI-H322M lung): > 100 µM | GI50 (ACHN renal): > 100 µM | TGI (ACHN renal): > 100 µM | GI50 (OVCAR-5 ovarian): > 100 µM | TGI (OVCAR-5 ovarian): > 100 µM | GI50 (HS 578T breast): > 100 µM | TGI (HS 578T breast): > 100 µM | GI50 (SF-295 CNS): > 100 µM | TGI (SF-295 CNS): > 100 µM | GI50 (K-562 leukemia): > 100 µM | TGI (K-562 leukemia): > 100 µM | GI50 (SN12C renal): > 100 µM | TGI (SN12C renal): > 100 µM | GI50 (LOX IMVI melanoma): > 100 µM | TGI (LOX IMVI melanoma): > 100 µM | GI50 (SF-539 CNS): > 100 µM | TGI (SF-539 CNS): > 100 µM | GI50 (A549 NSCLC): > 100 µM | TGI (A549 NSCLC): > 100 µM | GI50 (SK-MEL-28 melanoma): > 100 µM | TGI (SK-MEL-28 melanoma): > 100 µM | GI50 (HCT-15 colon): > 100 µM | TGI (HCT-15 colon): > 100 µM | GI50 (SR leukemia): > 100 µM | TGI (SR leukemia): > 100 µM | GI50 (SK-OV-3 ovarian): > 100 µM | TGI (SK-OV-3 ovarian): > 100 µM | GI50 (HCC-2998 colon): > 100 µM | TGI (HCC-2998 colon): > 100 µM | GI50 (MDA-MB-468 breast): > 100 µM | TGI (MDA-MB-468 breast): > 100 µM | GI50 (PC-3 prostate): > 100 µM | TGI (PC-3 prostate): > 100 µM | GI50 (NCI-H226 lung): > 100 µM | TGI (NCI-H226 lung): > 100 µM | GI50 (SK-MEL-5 melanoma): > 100 µM | TGI (SK-MEL-5 melanoma): > 100 µM | GI50 (MOLT-4 leukemia): > 100 µM | TGI (MOLT-4 leukemia): > 100 µM | GI50 (A498 renal): > 100 µM | TGI (A498 renal): > 100 µM | GI50 (OVCAR-3 ovarian): > 100 µM | TGI (OVCAR-3 ovarian): > 100 µM | GI50 (RPMI-8226 leukemia): > 100 µM | TGI (RPMI-8226 leukemia): > 100 µM | GI50 (UACC-257 melanoma): > 100 µM | TGI (UACC-257 melanoma): > 100 µM | GI50 (MALME-3M melanoma): > 100 µM | TGI (MALME-3M melanoma): > 100 µM | GI50 (IGROV1 ovarian): > 100 µM | TGI (IGROV1 ovarian): > 100 µM | GI50 (M14 melanoma): > 100 µM | TGI (M14 melanoma): > 100 µM | GI50 (CAKI-1 renal): > 100 µM | TGI (CAKI-1 renal): > 100 µM | GI50 (U251 glioblastoma): > 100 µM | TGI (U251 glioblastoma): > 100 µM | GI50 (HT29 colon): > 100 µM | TGI (HT29 colon): > 100 µM | GI50 (SF-268 CNS): > 100 µM | TGI (SF-268 CNS): > 100 µM | GI50 (HCT-116 colon): > 100 µM | TGI (HCT-116 colon): > 100 µM | GI50 (CCRF-CEM leukemia): > 100 µM | TGI (CCRF-CEM leukemia): > 100 µM | GI50 (HL-60(TB) leukemia): > 100 µM | TGI (HL-60(TB) leukemia): > 100 µM
